Experiments:
[1] = test system: learning ability of rats in a shuttle chamber; experiment: Active avoidance learning in a shuttle chamber, rats; type: in vivo, rat; conditions: rats, hypodermally 100 mg/kg
Text: (§1) In these experiments rats are taught to avoid an electric shock by escaping into a next chamber communicating with the first chamber by means of a special opening--a door. An electric current is applied to the chamber door consisting of metal plates. A conditional irritator is a light signal together with a sound click. The learning series consisted of 50 combinations. The number of combinations necessary for the animal's learning to escape into another chamber in response to the conditional signal was determined. Five correct responses out of 6 where regarded as the proof of stability of the acquired knowledge and were denoted as a "learning criterion". After 7 days the educational procedure was repeated, and again the number of combinations necessary to acquire the "learning criterion" was determined. In the case of difference between the first and second readings the percentage of retention of the acquired knowledge was calculated.
(§2) In this experiment the effect of the preparation according to the present invention and prior art preparations was separately evaluated for the purpose of comparison on well-learning and on specially selected poorly learning rats. […] To the poorly learning rats the animals were assigned which reached no "learning criterion" in the teaching series of 50 combinations, or, in other words, a stable knowledge of active avoidance was not worked out in them. […] The preparation according to the present invention and the prior art comparison preparations were administered before the first teaching series or thereafter.
(§3) Also studied were the effects produced upon a single and repeated administration of the preparation according to the present invention for 14 days.

[2] = test system: cerebral cortex of rabbits; experiment: Asymmetry factor by induced potential in the hearing zone of the cerebral cortex; type: in vivo, rabbit
Protocol: (§4) In the third series of experiments the effect of the preparation according to the present invention on the functional brain asymmetry was studied. The experiments were carried out on rabbits with electrodes implanted in the brain. The electrodes under nembutal narcosis (40 mg/kg) were implanted strictly symmetrically into the bearing zone of the temporal cortex of the right and left hemispheres on its lateral surface, whereas the indifferent electrode was secured to the nasal bones of a rabbit's skull. The acoustic irritation was applied through earphones. As the acoustic irritation a sound click caused by a square-shaped pulse from an electronic stimulator with a frequency of 0.1-0.2 Hz was used; the click intensity was adjusted within the range of from 5 to 80 Db. The amplification of the taken-off biopotentials was effected on an electroencephalograph; the induced potentials were obtained by means of an analyzer. 100 experiments on 20 animals were thus conducted; the interval between experiments on one animal was 7 days. The amplitude and form of the induced potential were determined. The asymmetry factor (Kas) was calculated by the formula: [formula] Ar --amplitude of the induced potential of the […] hemisphere, μV;
(§5) A1 --amplitude of the induced potential of the left hemisphere.
(§6) The test preparations were administered hypodermally in the form of 0.5-1.5% aqueous solutions 20 minutes before the beginning of the measurements.

[3] = test system: learning ability of mice in a shuttle chamber; experiment: Learning ability of mice in a shuttle chamber; type: in vivo, mouse; conditions: mice
[4] = test system: rabbit's brain hemispheres; experiment: Amplitude of induced potential in brain hemispheres (acoustic irritation); type: in vivo; conditions: rabbits
Protocol: as §4, §5, §6

[5] = test system: learning ability of rats preliminarily sorted out for poor learning ability; experiment: Active avoidance learning in a shuttle chamber, rats sorted out for poor learning ability; type: in vivo, rat; conditions: poorly learning rats, hypodermally 100 mg/kg
Text: as §1, §2, §3

[6] = test system: patients; experiment: Clinical study on patients with memory disorders, compared to pyracetam; type: in vivo, human
Text: The preparation according to the present invention was studied in clinics on 130 patients.
As regards diagnosis and sex the patients were distributed as follows:
skull-brain traumata with memory disturbance: 75 patients (52 men and 23 women)
Alzheimer's disease: 15 patients (3 men and 12 women)
Pick's disease: 5 patients (5 men)
Senile dementia: 15 patients (4 men and 11 women)
Vascular dementia (cerabral atero-sclerosis, hypertonic disease): 20 patients (7 men and 13 women)
In the group of patients with skull-brain trauma the patient's age varied from 17 to 60 years, in the other patients--from 52 to 75 years.
In addition to clinico-psychopathological methods of investigation, all the patients were subjected to neuropsychological studies during which specific tasks were offered them to solve. In doing so, the response was assessed against a 4-points scale: 3--maximally pronounced disorder, full or substantially full incapability to deal with the task set; 2--a medium degree of manifestation of the deficiency, solving the task with the experimentator's assistance; 1--minor errors, independent correction of mistakes; 0--lack of disturbances.
The treatment course duration is 30-60 days. In the case of an acute skull-brain trauma (65 patients) the treatment started 15-20 days after the moment of trauma and lasted for 20-30 days.
It is known that the function of memory has a complex brain organization and different zones of brains take part in its regulation. During the studies a multi-faceted assessment of the memory function was carried out; there were assessed: (1) mnestic component of the environmental orientation of a patient; (2) involuntary memory for current events; (3) intentional exo-experimental memory; (4) volume and soundness of audio-speaking memory; (5) volume and soundness of visual memory; (6) operative memory; (7) memory for knowledge acquired before the disease.

[7] = hypodermally 10 mg/kg, 12 day (retention)
[8] = hypodermally 30 mg/kg, 12 day (retention)
[9] = hypodermally 100 mg/kg, 1st day
[10] = hypodermally 100 mg/kg, 12 day (retention)
[11] = per os 30 mg/kg, 12 day (retention)
[12] = per os 100 mg/kg, 12 day (retention)

SMILES: NC(=O)CN1CCCC1=O [Pyracetam, pyracetam]
- Number of combinations to reach the "learning criterion" in II teaching series (after 7 days) [1]: 4.7 ± 0.9
- Number of combinations to reach the "learning criterion" in the I teaching series [1]: 20.8 ± 1.2
- Number of non-taught animals in the group [1]: 1/20
- Percentage knowledge retention [1]: 70%
- asymmetry factor (in words) [2]: failed to influence all these characteristics
- Asymmetry factor, Preparation ([2]; hypodermally 100 mg/kg, control 0.19 ± 0.03): 0.213 ± 0.05
- learning and memory (in words) ([3]; hypodermally): improves learning, but not memory
- % of avoidance reactions, group I ([3]; hypodermally 10 mg/kg, 1st day): 23%
- % of avoidance reactions, group II ([3]; hypodermally 10 mg/kg, 1st day): 33%
- % of avoidance reactions, group III ([3]; hypodermally 10 mg/kg, 1st day): 48%
- % of avoidance reactions, group IV ([3]; hypodermally 10 mg/kg, 1st day): 52%
- % of avoidance reactions, group V ([3]; hypodermally 10 mg/kg, 1st day): 60%
- % of avoidance reactions, group VI ([3]; hypodermally 10 mg/kg, 1st day): 61%
- % of avoidance reactions, group I [3, 7]: 60%
- % of avoidance reactions, group II [3, 7]: 78%
- % of avoidance reactions, group III [3, 7]: 80%
- % of avoidance reactions, group IV [3, 7]: 79%
- % of avoidance reactions, group V [3, 7]: 80%
- % of avoidance reactions, group VI [3, 7]: 78%
- % of avoidance reactions, group I ([3]; hypodermally 30 mg/kg, 1st day): 20%
- % of avoidance reactions, group II ([3]; hypodermally 30 mg/kg, 1st day): 32%
- % of avoidance reactions, group III ([3]; hypodermally 30 mg/kg, 1st day): 55%
- % of avoidance reactions, group IV ([3]; hypodermally 30 mg/kg, 1st day): 67%
- % of avoidance reactions, group V ([3]; hypodermally 30 mg/kg, 1st day): 70%
- % of avoidance reactions, group VI ([3]; hypodermally 30 mg/kg, 1st day): 75%
- % of avoidance reactions, group I [3, 8]: 60%
- % of avoidance reactions, group II [3, 8]: 80%
- % of avoidance reactions, group III [3, 8]: 82%
- % of avoidance reactions, group IV [3, 8]: 81%
- % of avoidance reactions, group V [3, 8]: 84%
- % of avoidance reactions, group VI [3, 8]: 88%
- % of avoidance reactions, group I [3, 9]: 24%
- % of avoidance reactions, group II [3, 9]: 41%
- % of avoidance reactions, group III [3, 9]: 55%
- % of avoidance reactions, group IV [3, 9]: 70%
- % of avoidance reactions, group V [3, 9]: 72%
- % of avoidance reactions, group VI [3, 9]: 74%
- % of avoidance reactions, group I [3, 10]: 62%
- % of avoidance reactions, group II [3, 10]: 90%
- % of avoidance reactions, group III [3, 10]: 92%
- % of avoidance reactions, group IV [3, 10]: 90%
- % of avoidance reactions, group V [3, 10]: 90%
- % of avoidance reactions, group VI [3, 10]: 92%
- effect upon per os administration (in words) ([3]; per os): the effect is noticeably reduced
- % of avoidance reactions, group I ([3]; per os 30 mg/kg, 1st day): 11%
- % of avoidance reactions, group II ([3]; per os 30 mg/kg, 1st day): 17%
- % of avoidance reactions, group III ([3]; per os 30 mg/kg, 1st day): 31%
- % of avoidance reactions, group IV ([3]; per os 30 mg/kg, 1st day): 32%
- % of avoidance reactions, group V ([3]; per os 30 mg/kg, 1st day): 33%
- % of avoidance reactions, group VI ([3]; per os 30 mg/kg, 1st day): 40%
- % of avoidance reactions, group I [3, 11]: 48%
- % of avoidance reactions, group II [3, 11]: 70%
- % of avoidance reactions, group III [3, 11]: 71%
- % of avoidance reactions, group IV [3, 11]: 78%
- % of avoidance reactions, group V [3, 11]: 78%
- % of avoidance reactions, group VI [3, 11]: 81%
- % of avoidance reactions, group I ([3]; per os 100 mg/kg, 1st day): 21%
- % of avoidance reactions, group II ([3]; per os 100 mg/kg, 1st day): 22%
- % of avoidance reactions, group III ([3]; per os 100 mg/kg, 1st day): 32%
- % of avoidance reactions, group IV ([3]; per os 100 mg/kg, 1st day): 42%
- % of avoidance reactions, group V ([3]; per os 100 mg/kg, 1st day): 43%
- % of avoidance reactions, group VI ([3]; per os 100 mg/kg, 1st day): 52%
- % of avoidance reactions, group I [3, 12]: 69%
- % of avoidance reactions, group II [3, 12]: 80%
- % of avoidance reactions, group III [3, 12]: 82%
- % of avoidance reactions, group IV [3, 12]: 79%
- % of avoidance reactions, group V [3, 12]: 78%
- % of avoidance reactions, group VI [3, 12]: 78%
- amplitude of induced potentials (in words) [4]: failed to influence all these characteristics
- % of knowledge retention [5]: 26%
- Number of combinations till appearance of "learning criterion", I teaching [5]: 30.3 ± 2.5
- Number of combinations till appearance of "learning criterion", II-checking of retention of knowledge [5]: 22.4 ± 2.1
- Number of untaught animals in the group [5]: 9/20
- effect on the functional symmetry of the brain and activity of the dominating hemisphere ([6]; experimental and clinical studies): no such effect
- character of recovery (in words) ([6]; patients): uniform regression of all available disorders

— patent publication US4735953A, “Pharmaceutical preparation for learning stimulation and memory improvement” (priority 1986, dated 1988)
